Laboratory results reported in ChEMBL document CHEMBL3421558, “Structure activity relationship of substituted 1,5-naphthyridine analogs of oxabicyclooctane-linked novel bacterial topoisomerase inhibitors as broad-spectrum antibacterial agents (Part-4)” (Bioorg Med Chem Lett, 2015).
Converted amounts (≈) assume the structure as drawn.

Key:
Assay type in all cases: functional
[1] = tested on: Escherichia coli; assay: Antimicrobial activity against Escherichia coli ATCC 25922 by micro broth dilution or agar based method; details: Escherichia coli, ATCC 25922; read-out: MIC
[2] = tested on: Pseudomonas aeruginosa; assay: Antimicrobial activity against Pseudomonas aeruginosa PAO1 by micro broth dilution or agar based method; details: Pseudomonas aeruginosa, PAO1; read-out: MIC
[3] = tested on: Streptococcus pneumoniae; assay: Antimicrobial activity against Streptococcus pneumoniae IID553 by micro broth dilution or agar based method; details: Streptococcus pneumoniae, IID553; read-out: MIC
[4] = tested on: Acinetobacter baumannii; assay: Antimicrobial activity against Acinetobacter baumannii IID876 by micro broth dilution or agar based method; details: Acinetobacter baumannii, IID876; read-out: MIC
[5] = tested on: Staphylococcus aureus; assay: Antimicrobial activity against methicillin-resistant Staphylococcus aureus OIT971 by micro broth dilution or agar based method
[6] = tested on: Staphylococcus aureus; assay: Antimicrobial activity against Staphylococcus aureus Smith by micro broth dilution or agar based method; details: Staphylococcus aureus, Smith; read-out: MIC
[7] = tested on: Enterococcus faecium; assay: Antimicrobial activity against VanA expressing vancomycin-resistant Enterococcus faecium by micro broth dilution or agar based method; details: Enterococcus faecium; read-out: MIC
[8] = tested on: Staphylococcus aureus; assay: Potency index, ratio of MIC for quinolone-resistant Staphylococcus aureus MS5935 to MIC for quinolone-[…]

| SMILES | MIC [1] [µg/mL] | MIC [2] [µg/mL] | MIC [3] [µg/mL] | MIC [4] [µg/mL] | MIC [5] [µg/mL] | MIC [6] [µg/mL] | MIC [7] [µg/mL] | Ratio [8] |
| --- | --- | --- | --- | --- | --- | --- | --- | --- |
| COc1ccc2ncc(F)c(C[C@H](O)C34CCC(NCc5ccc6c(n5)NC(=O)CO6)(CC3)CO4)c2n1 | 2 (≈ 3.93 µM) | 8 (≈ 15.7 µM) | 0.05 (≈ 0.0981 µM) | 0.5 (≈ 0.981 µM) | 0.06 (≈ 0.118 µM) | 0.02 (≈ 0.0393 µM) | 0.5 (≈ 0.981 µM) |  |
| COc1cc2ncc(F)c(CCC34CCC(NCc5ccc6c(n5)NC(=O)CO6)(CC3)CO4)c2nc1OC | 8 (≈ 15.3 µM) | 8 (≈ 15.3 µM) | 8 (≈ 15.3 µM) | 8 (≈ 15.3 µM) | 0.25 (≈ 0.477 µM) | 0.5 (≈ 0.955 µM) | 8 (≈ 15.3 µM) |  |
| COc1ccc2ncc(Cl)c(CCC34CCC(NCc5ccc6c(n5)NC(=O)CO6)(CC3)CO4)c2n1 | 2 (≈ 3.92 µM) | 8 (≈ 15.7 µM) | 0.25 (≈ 0.49 µM) | 1 (≈ 1.96 µM) | 0.008 (≈ 0.0157 µM) | 0.008 (≈ 0.0157 µM) | 1 (≈ 1.96 µM) |  |
| COc1ccc2ncc(C#N)c(CCC34CCC(NCc5ccc6c(n5)NC(=O)CO6)(CC3)CO4)c2n1 | 2 (≈ 4 µM) | 4 (≈ 7.99 µM) | 0.125 (≈ 0.25 µM) | 1 (≈ 2 µM) | 0.008 (≈ 0.016 µM) | 0.016 (≈ 0.032 µM) | 0.5 (≈ 0.999 µM) |  |
| COc1ccc2ncc(OC)c(CCC34CCC(NCc5ccc6c(n5)NC(=O)CO6)(CC3)CO4)c2n1 | 16 (≈ 31.6 µM) | 64 (≈ 127 µM) | 4 (≈ 7.91 µM) | 8 (≈ 15.8 µM) | 0.063 (≈ 0.125 µM) | 0.125 (≈ 0.247 µM) | 4 (≈ 7.91 µM) |  |
| COc1ccc2ncc(O)c(CCC34CCC(NCc5ccc6c(n5)NC(=O)CO6)(CC3)CO4)c2n1 | 4 (≈ 8.14 µM) | 16 (≈ 32.6 µM) | 0.5 (≈ 1.02 µM) | 2 (≈ 4.07 µM) | 0.031 (≈ 0.0631 µM) | 0.031 (≈ 0.0631 µM) | 2 (≈ 4.07 µM) |  |
| O=C1COc2ccc(CNC34CCC(CCc5c(F)cnc6ccc(O)nc56)(CC3)OC4)nc2N1 | 4 (≈ 8.34 µM) | 32 (≈ 66.7 µM) | 4 (≈ 8.34 µM) | 2 (≈ 4.17 µM) | 0.25 (≈ 0.521 µM) | 0.5 (≈ 1.04 µM) | 8 (≈ 16.7 µM) |  |
| O=C1COc2ccc(CNC34CCC(CCc5c(F)cnc6cccnc56)(CC3)OC4)nc2N1 | 4 (≈ 8.63 µM) | 16 (≈ 34.5 µM) | 4 (≈ 8.63 µM) | 1 (≈ 2.16 µM) | 0.25 (≈ 0.539 µM) | 0.5 (≈ 1.08 µM) | 4 (≈ 8.63 µM) |  |
| Cc1ccc2ncc(F)c(CCC34CCC(NCc5ccc6c(n5)NC(=O)CO6)(CC3)CO4)c2n1 | 8 (≈ 16.8 µM) | 16 (≈ 33.5 µM) | 2 (≈ 4.19 µM) | 2 (≈ 4.19 µM) | 0.125 (≈ 0.262 µM) | 0.25 (≈ 0.524 µM) | 4 (≈ 8.38 µM) |  |
| COC(=O)c1ccc2ncc(F)c(CCC34CCC(NCc5ccc6c(n5)NC(=O)CO6)(CC3)CO4)c2n1 | 8 (≈ 15.3 µM) | 16 (≈ 30.7 µM) | 16 (≈ 30.7 µM) | 2 (≈ 3.83 µM) | 0.063 (≈ 0.121 µM) | 0.063 (≈ 0.121 µM) | 16 (≈ 30.7 µM) |  |
| O=C1COc2ccc(CNC34CCC(CCc5c(F)cnc6ccc(C(=O)O)nc56)(CC3)OC4)nc2N1 | 16 (≈ 31.5 µM) | 16 (≈ 31.5 µM) | 16 (≈ 31.5 µM) | 16 (≈ 31.5 µM) | 16 (≈ 31.5 µM) | 16 (≈ 31.5 µM) | 16 (≈ 31.5 µM) |  |
| N#Cc1ccc2ncc(F)c(CCC34CCC(NCc5ccc6c(n5)NC(=O)CO6)(CC3)CO4)c2n1 | 2 (≈ 4.09 µM) | 8 (≈ 16.4 µM) | 1 (≈ 2.05 µM) | 1 (≈ 2.05 µM) | 0.063 (≈ 0.129 µM) | 0.063 (≈ 0.129 µM) | 2 (≈ 4.09 µM) |  |
| Nc1ccc2ncc(F)c(CCC34CCC(NCc5ccc6c(n5)NC(=O)CO6)(CC3)CO4)c2n1 | 8 (≈ 16.7 µM) | 16 (≈ 33.4 µM) | 16 (≈ 33.4 µM) | 2 (≈ 4.18 µM) | 1 (≈ 2.09 µM) | 2 (≈ 4.18 µM) | 8 (≈ 16.7 µM) |  |
| CN(C)c1ccc2ncc(F)c(CCC34CCC(NCc5ccc6c(n5)NC(=O)CO6)(CC3)CO4)c2n1 | 8 (≈ 15.8 µM) | 8 (≈ 15.8 µM) | 2 (≈ 3.95 µM) | 8 (≈ 15.8 µM) | 0.25 (≈ 0.494 µM) | 0.25 (≈ 0.494 µM) | 4 (≈ 7.9 µM) |  |
| O=C1COc2ccc(CNC34CCC(CCc5c(F)cnc6ccc(N7CCS(=O)(=O)CC7)nc56)(CC3)OC4)nc2N1 | 16 (≈ 26.8 µM) | 16 (≈ 26.8 µM) | 4 (≈ 6.7 µM) | 16 (≈ 26.8 µM) | 1 (≈ 1.68 µM) | 1 (≈ 1.68 µM) | 16 (≈ 26.8 µM) | <4 |
| COc1nc2c(CCC34CCC(NCc5ccc6c(n5)NC(=O)CO6)(CC3)CO4)c(F)cnc2cc1F | 4 (≈ 7.82 µM) | 8 (≈ 15.6 µM) | 0.25 (≈ 0.489 µM) | 1 (≈ 1.95 µM) | 0.016 (≈ 0.0313 µM) | 0.031 (≈ 0.0606 µM) | 2 (≈ 3.91 µM) |  |
| COc1cc(C)c2ncc(F)c(CCC34CCC(NCc5ccc6c(n5)NC(=O)CO6)(CC3)CO4)c2n1 | 4 (≈ 7.88 µM) | 16 (≈ 31.5 µM) | 0.25 (≈ 0.493 µM) | 2 (≈ 3.94 µM) | 0.008 (≈ 0.0158 µM) | 0.016 (≈ 0.0315 µM) | 2 (≈ 3.94 µM) |  |
